According to PubChem BioAssay (NCI):
“And” between values parts separate entries of the source, which are not always exact repeats. Equal entries are not always repeated.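 Test compounds were applied to cells in 96-well plates for 48 hours at 5 doses. GI50: concentration for 50% inhibition of growth. TGI is the concentration that stops growth completely.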 Where a SMILES comes first, the peptide text is derived from it. [ ]: non-standard residue; d: D form. The star is where a group is joined. ξ: configuration not given here. ξNMeF = CNC(Cc1ccccc1)C(=O)O; NMeV = CN[C@H](C(=O)O)C(C)C; Boc = CC(C)(C)OC(=O)*; OBn = c1ccc(CO*)cc1

Tests used:
Test in all cases: NCI anticancer screen, dose series, 48 h
786-0 renal = system: 786-0 renal
ACHN renal = system: ACHN renal
HL-60(TB) leukemia = system: HL-60(TB) leukemia
IGROV1 ovarian = system: IGROV1 ovarian
NCI-H522 lung = system: NCI-H522 lung
RPMI-8226 leukemia = system: RPMI-8226 leukemia
SNB-75 CNS = system: SNB-75 CNS
U251 CNS = system: U251 CNS
UACC-62 melanoma = system: UACC-62 melanoma
HCT-116 colon = system: HCT-116 colon
SF-295 CNS = system: SF-295 CNS
BT-549 breast = system: BT-549 breast
NCI/ADR-RES ovarian = system: NCI/ADR-RES ovarian
RXF 393 renal = system: RXF 393 renal
MCF7 breast = system: MCF7 breast

Structure (SMILES) | TGI (786-0 renal) | TGI (ACHN renal) | TGI (HL-60(TB) leukemia) | TGI (IGROV1 ovarian) | TGI (NCI-H522 lung) | TGI (RPMI-8226 leukemia) | TGI (SNB-75 CNS) | TGI (U251 CNS) | TGI (UACC-62 melanoma) | TGI (HCT-116 colon) | TGI (SF-295 CNS) | TGI (BT-549 breast) | TGI (NCI/ADR-RES ovarian) | TGI (RXF 393 renal) | GI50 (IGROV1 ovarian) | TGI (MCF7 breast) | GI50 (SNB-75 CNS)
COc1ccc2c(c1)CCc1c-2[nH]c2cc3c(cc2c1=O)OCO3 | > 100 µM | > 100 µM | > 100 µM | > 100 µM | > 100 µM | > 100 µM | > 100 µM | > 100 µM | > 100 µM | – | – | – | – | – | – | – | –
Nc1nc(SCC(=O)c2ccccc2)c2[nH]cnc2n1 | > 100 µM | > 100 µM | > 100 µM | > 100 µM | > 100 µM | > 100 µM | 82.6 µM | > 100 µM | > 100 µM | > 100 µM | > 100 µM | – | – | – | – | – | –
C/C(O)=C(\C=N\C(=S)N=Nc1c(O)[nH]c2ccccc12)C(=O)Nc1ccccc1C | > 100 µM | > 100 µM | > 100 µM | > 100 µM | – | – | > 100 µM | > 100 µM | > 100 µM | > 100 µM | > 100 µM | > 100 µM | > 100 µM | > 100 µM | – | – | –
CC(=O)OCC1OC(n2c(C)c(C(C)=O)c(-c3ccco3)c(C#N)c2=S)C(OC(C)=O)C(OC(C)=O)C1OC(C)=O (stereo not given) | > 100 µM | > 100 µM | > 100 µM | > 100 µM | > 100 µM | – | 82.1 µM | > 100 µM | > 100 µM | > 100 µM | > 100 µM | – | > 100 µM | > 100 µM | > 100 µM and 43.6 µM | > 100 µM | 0.171 µM
Cn1c(=O)c2ccccc2[n+]2c(-c3cccc([N+](=O)[O-])c3)csc12 | > 100 µM | > 100 µM | 62.8 µM | > 100 µM | > 100 µM | > 100 µM | 82.2 µM | > 100 µM | > 100 µM | > 100 µM | > 100 µM | – | 83.5 µM | > 100 µM | – | > 100 µM | –
Clc1cccc(-c2nc3cccc4c3n2Cc2ncccc2-4)c1 | > 100 µM | > 100 µM | – | > 100 µM | > 100 µM | – | 58.6 µM | > 100 µM | > 100 µM | > 100 µM | > 100 µM | > 100 µM | > 100 µM | > 100 µM | – | > 100 µM | –
CC1(C)CC[C@]2(C(=O)O)CC[C@]3(C)C(=CCC4=C5C[C@H](O)[C@H](O)[C@@](C)(CO)[C@@]5(C)CC[C@]43C)[C@@H]2C1 | > 100 µM | > 100 µM | > 100 µM | > 100 µM | > 100 µM | > 100 µM | 83.8 µM | > 100 µM | > 100 µM | > 100 µM | > 100 µM | – | > 100 µM | – | – | > 100 µM | –
CCOC(=O)[C@@H]1[C@@H](c2ccccc2)N(C)O[C@@]1(c1ccccc1)C(F)(F)F | > 100 µM | > 100 µM | – | > 100 µM | > 100 µM | > 100 µM | > 100 µM | > 100 µM | > 100 µM | > 100 µM | > 100 µM | > 100 µM | > 100 µM | > 100 µM | – | – | –
CCCCCCCCOC(=O)C12Oc3ccc(-c4ccc5c(c4O)C(O)=C4C(=O)CC(C)C(O)C4(C(=O)OCCCCCCCC)O5)c(O)c3C(O)=C1C(=O)CC(C)C2O (stereo not given) | > 100 µM | 25.5 µM | 9.61 µM | 61.3 µM | 48.2 µM | – | 25.5 µM | 27.5 µM | 99.3 µM | > 100 µM | 48 µM | 41.9 µM | > 100 µM | 11.3 µM | – | 44.9 µM | –
COCn1cc(C2=C(C)C(=O)C(C)=C(C)C2=O)cn1 | 32.2 µM | > 100 µM | 24.3 µM | > 100 µM | – | 60.2 µM | > 100 µM | – | > 100 µM | 36.7 µM | > 100 µM | – | 59.3 µM | > 100 µM | – | > 100 µM | –
COc1cccc(NC(=O)CSc2nnc(Cc3ccccc3)o2)c1 | > 100 µM | 63.6 µM | > 100 µM | > 100 µM | > 100 µM | > 100 µM | > 100 µM | > 100 µM | > 100 µM | > 100 µM | > 100 µM | – | – | > 100 µM | – | – | –
CC(O)CNC(=O)Nc1c(C(F)(F)F)cc(-c2ccccc2)[nH]c1=O (stereo not given) | > 100 µM | > 100 µM | 1.54 µM | > 100 µM | > 100 µM | – | – | > 100 µM | > 100 µM | > 100 µM | > 100 µM | > 100 µM | > 100 µM | > 100 µM | – | > 100 µM | –
C=C(COCO)C(C)=O | 25.6 µM | 29.2 µM | 5.78 µM | 35.9 µM | 3.75 µM | 5.64 µM | 30.5 µM | 47.2 µM | 32.3 µM | 26.7 µM | > 100 µM | – | 51.5 µM | 29.4 µM | – | 34.5 µM | –
O=C1c2ccccc2C(=O)N1CCCOCc1c[nH]c(=O)[nH]c1=O | > 100 µM | > 100 µM | > 100 µM | > 100 µM | > 100 µM | > 100 µM | > 100 µM | > 100 µM | > 100 µM | > 100 µM | > 100 µM | – | – | > 100 µM | – | – | –
CC(C)[C@@H](C(=O)N(C)[C@H](C(=O)N1CCC[C@H]1C(=O)OCc1ccccc1)C(C)C)N(C)C(=O)C(Cc1ccccc1)N(C)C(=O)[C@H](NC(=O)OC(C)(C)C)C(C)C (stereo not given in full) (Boc-[dV][ξNMeF][NMeV][NMeV]P-OBn) | > 69.7 µM | > 100 µM | > 31.6 µM | > 31.6 µM | > 100 µM | > 31.6 µM | > 100 µM | > 31.6 µM | > 31.6 µM | > 31.6 µM | > 31.6 µM | – | – | > 31.6 µM | – | – | –
Cc1ccc(Nc2cccc3c2C(=O)c2cccc(Nc4ccc(C)cc4S(=O)(=O)O)c2C3=O)c(S(=O)(=O)O)c1 | > 100 µM | > 100 µM | > 100 µM | > 100 µM | > 100 µM | > 100 µM | > 100 µM | > 100 µM | > 100 µM | > 100 µM | – | – | – | > 100 µM | – | – | –
